Assay results published in patent US6677298B2, “Regulators of PPARδ (β) and their use in the treatment of obesity and insulin resistance” (Bristol-Myers Squibb Company, priority 2000, dated 2004).
Entries after “also recorded” stand apart in the source; their conditions may differ.

How the values were obtained:
PPARδ(β) LBD = biological target: T1, PPARδ(β) LBD (Homo sapiens, UniProt Q03181); experiment: In vitro PPARδ(β) LBD ligand binding assay (SPA, 3H-labeled ligand displacement); conditions: 50 nM 3H-labeled ligand, His-tagged LBD bacterial lysate, SPA beads, 1 hour room temperature; read-out: IC50, half maximal inhibition/displacement of 3H labeled PPARδ(β) ligand binding to PPARδ(β) LBD
T1 construct: His-tagged PPARδ(β) LBD (amino acid 139-441, Schmidt et al); made in house; host or cells: E. coli (crude lysate supernatant used)
T1 sequence (Q03181 139-441): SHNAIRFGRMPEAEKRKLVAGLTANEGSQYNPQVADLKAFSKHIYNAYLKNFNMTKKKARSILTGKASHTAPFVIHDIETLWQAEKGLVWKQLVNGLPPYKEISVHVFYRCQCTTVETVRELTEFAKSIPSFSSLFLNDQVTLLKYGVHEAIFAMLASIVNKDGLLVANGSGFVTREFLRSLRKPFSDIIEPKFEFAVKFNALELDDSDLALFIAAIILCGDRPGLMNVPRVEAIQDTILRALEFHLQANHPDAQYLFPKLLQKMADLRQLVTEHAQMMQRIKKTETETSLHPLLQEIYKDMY
Text: FIG. 3: Illustrates results from a PPARδ(β) ligand binding assay.
This invention also provides methods for screening and identification of compounds that bind to and/or regulate PPARδ(β). The PPARδ(β) ligand binding domain (LBD) from a mammalian species including human and/or a non-mammalian species such as frog (Xenopus), is used for screening for compounds that bind to the LBD (Schmidt et al, Mol. Endocrinology, 6:1634-1641, 1992; Evans et al., Sequence XR-4 in U.S. Pat. No. 5,571,696, 1996; Berger et al. J. Biol. Chem., 274:6718-6725, 1999). […]
A single E.coli colony containing His-tagged PPARδ(β) LBD (amino acid 139-441, Schmidt et al., Mol. Endocrinology, 6:1634-1641, 1992) expressing plasmid DNA is mixed with 3 ml Luria broth (LB) supplemented with 100 μg/ml antibiotic ampicilin and grown at 37° C. […] The plates are then read on Packard top-count beta-scintillation counter (1 minute/well). […] In this binding assay any test compound may replace L-165041 and the binding affinity for PPARδ(β) is easily determined.

Gal4/PPARδ(β) = biological target: T2, Gal4/PPARδ(β) (Homo sapiens, UniProt Q03181); experiment: Cell based transactivation assay, δ agonist mode (Gal4 RE driven SEAP reporter in CHO cells); conditions: CHO cells stably transfected with Gal4/PPARδ(β); 3.16-31600 nM; FIG. 4
T2 construct: human PPARδ(β) LBD (amino acid 139-441); {Schmidt et al; expressed in transfected cells; host or cells: CHO cells, stably transfected
T2 sequence (P04386 1-144 partner limits assumed, one chain of several): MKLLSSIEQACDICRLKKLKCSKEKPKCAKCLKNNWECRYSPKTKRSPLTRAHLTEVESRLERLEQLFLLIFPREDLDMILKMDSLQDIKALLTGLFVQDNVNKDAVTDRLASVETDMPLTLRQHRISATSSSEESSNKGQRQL

IC50 (PPARδ(β) LBD): 52 nM
Compound: CCCc1c(OCCCOc2ccc(OCC(=O)O)cc2)ccc(C(C)=O)c1O [Compound L-165041]
Induction of SEAP reporter gene activity (Gal4/PPARδ(β)): dose dependent activation of reporter gene SEAP function; also recorded: dose dependently induced reporter gene activity
